Measurements as given in US9592231B2, “Therapy for complications of diabetes” (AbbVie Deutschland GmbH & Co. KG, priority 2007, dated 2017).
Read-outs that look alike come from different tables or passages of the source.

What was measured:
ETA [1] = biological target: T1, ETA (Homo sapiens, UniProt P25101); assay: ETA affinity reported by Riechers et al (1996); assay type: binding; conditions: calculated from the Riechers et al (1996) data
T1 sequence (P25101 21-427): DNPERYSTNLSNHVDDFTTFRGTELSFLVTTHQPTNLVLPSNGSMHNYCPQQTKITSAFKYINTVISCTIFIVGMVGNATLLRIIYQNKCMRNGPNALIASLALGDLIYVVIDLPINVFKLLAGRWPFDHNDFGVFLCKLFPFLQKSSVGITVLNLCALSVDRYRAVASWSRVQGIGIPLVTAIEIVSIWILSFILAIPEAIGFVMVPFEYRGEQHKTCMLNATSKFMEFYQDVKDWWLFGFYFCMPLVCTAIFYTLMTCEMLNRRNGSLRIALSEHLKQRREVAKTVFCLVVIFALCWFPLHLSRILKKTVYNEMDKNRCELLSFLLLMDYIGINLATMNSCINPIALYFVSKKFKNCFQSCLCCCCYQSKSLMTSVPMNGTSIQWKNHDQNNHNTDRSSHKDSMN

obese mice = conditions: 50 mg/kg/day; cited from earlier work
[2] = system: rats with streptozotocin-induced diabetes; conditions: 100 mg/kg/day; cited from earlier work
ETA [3] = biological target: T1, ETA; assay: 125I-endothelin-1 receptor binding cold ligand competition, steady-state, human myocardial membranes; set-up: human myocardial membranes prepared from failing and non-failing left ventricles; from tissue; host or cells: human left-ventricular myocardium (failing and non-failing), membrane preparation; conditions: mean of 8 assays
resistant hypertension = conditions: Myogen news release Aug. 18, 2005; cited from earlier work
moderate hypertension = conditions: patients, 10 to 100 mg/day, by comparison with placebo; cited from earlier work
ETA [4] = biological target: T1, ETA; conditions: Lip (2001); cited from earlier work
[5] = system: streptozotocin-induced diabetes in rats; conditions: 100 mg/kg/day; cited from earlier work
[6] = system: rat model of insulin resistance; conditions: rats, 5 mg/kg/day, cited from earlier work
hyperglycemic rats = conditions: type 2 diabetes model; cited from earlier work

For `COc1cc(OC)nc(OC(C(=O)O)C(OC)(c2ccccc2)c2ccccc2)n1` (racemic) [racemate, 2-(4,6-dimethoxypyrimidin-2-yloxy)-3-methoxy-3,3-diphenylpropionic acid], the “selectivity Ki(ETB)/Ki(ETA)” value (ETA [1]) was “about 62”.
In the case of `COc1cc(OC)nc(O[C@H](C(=O)O)C(OC)(c2ccccc2)c2ccccc2)n1` [darusentan, (+)-(S)-2-[(4,6-dimethoxy-2-pyrimidinyl)oxy]-3-methoxy-3,3-diphenylpropionic acid], the “increase in body weight” value (obese mice) is given as “completely prevented”, the “glomerular matrix protein deposition” value [2] is given as “normalized” and the serum glucose concentrations [2] is given as “neither compound was found to influence”. For the same molecule, the “Ki(ETB)/Ki(ETA)” value (ETA [3]) was 1181±148, the “results of clinical trial DAR-201” value (resistant hypertension) was “positive results” and the DBP (moderate hypertension) was “significantly reduce”. For the same molecule, the SBP (moderate hypertension) was “significantly reduce”, the “selectivity Ki(ETB)/Ki(ETA)” value (ETA [4]) was “about 160” and the plasma glucose levels [5] was “unaffected”. The “renal effects of streptozotocin-induced diabetes, including increased glomerular diameter and deposition of eosinophilic material within the glomeruli” value [5] was “partially or fully reversed”.
In the case of `CCCCN(CCCC)C(=O)CN1C[C@H](c2ccc3c(c2)OCO3)[C@@H](C(=O)O)[C@@H]1c1ccc(OC)cc1` [atrasentan], the ΔAUC for glucose ([6]; meal tolerance test) is given as “significantly reduce”, the “ΔAUC for glucose-insulin index” value ([6]; meal tolerance test) is given as “significantly reduce” and the ΔAUC for insulin ([6]; meal tolerance test) is given as “significantly reduce”. For the same molecule, the “3-hour fasting glucose level” value [6] was “not” and the “3-hour fasting insulin level” value [6] was “significantly reduce”.
For `COC(c1ccccc1)(c1ccccc1)[C@H](Oc1nc(C)cc(C)n1)C(=O)O` [BSF 208075], the plasma glucose levels (hyperglycemic rats) is listed as “reduced”.
